Measured values reported in publication PMC6024615, “Effect of Biliary Drainage on the Toxicity and Toxicokinetics of Amanita exitialis in Beagles” (Toxins, 2018).
Like-named read-outs stand apart in the source and are kept apart here. *1 amine or outer side, *2 acyl side, *3 side chain or, on linkers, in order; H or OH if unused. Where a SMILES comes first, the peptide text is derived from it. Bridges are numbered along the chain shown (N, C = ends). [ ]: non-standard residue; d: D form. Trp(2-yl) = O=C([C@H](Cc1c([*:3])[nH]c2ccccc12)N[*:1])[*:2]; Leu(4R-OH,5-OH) = C[C@](O)(CO)C[C@H](N)C(=O)O; dAsp(3S-OH) = N[C@@H](C(=O)O)[C@H](O)C(=O)O; cisHyp = O=C(O)[C@@H]1C[C@H](O)CN1

How the values were obtained:
[1] = Peptide toxins in the blood / toxicokinetics in beagles with biliary drainage; assay type: in vivo, beagle dogs
Description: The study was approved by National Institute of Occupational Health and Poison Control review board for animal experiments. Twenty-four male beagles (age, 8–10 months; weight, 10 ± 1 kg) were obtained from Beijing Institute of Xieerxin Biology Resource (Beijing, China). They were randomly divided into four groups of six animals each: control, biliary drainage, and 20 and 60 mg/kg with biliary drainage groups. The biliary drainage operation was conducted in all groups barring the control group. The dogs were dressed in homemade underwear, coats, and Elizabeth circles for a week to ensure pre-experimental acclimatization (Figure S8a–c). After determining the baseline values for biochemical indicators, the dogs were fasted for 24 h but received water ad libitum. They were anesthetized by intravenous administration of pentobarbital sodium (3%, 1 mL/kg) during the surgery. A temperature of 38–39 °C was maintained with a warming mat. After skin preservation and sterilization, the abdominal cavity was opened through the central abdomen. The abdomen was explored and blunt dissection of the common bile duct was performed (Figure S8d). The common bile duct and its branches were ligated from the intestinal side. A 7.0-Fr drainage catheter (COOK, Bloomington, IN, USA) was percutaneously inserted into the gallbladder, and a medical drainage bag was connected to the drainage catheter coming out of the abdominal cavity. Each opened layer, including the peritoneum, abdominal wall muscle, and skin, was closed with suture. The operative incision was protected with sterile gauze and a bandage, and the dogs were dressed in homemade underwear, coats, and Elizabeth circles. The drainage bag was placed in the pocket of the coat (Figure S8e). After the anesthetic wore off, the dogs were placed in cages, and food and water were provided ad libitum. The operative incision was sterilized with iodophor twice a day until stitches were removed six days after surgery. The drainage bag was replaced every day. On the eighth day after surgery, the 20 and 60 mg/kg with biliary drainage groups were orally administered a lyophilized powder of Amanita exitialis in starch capsules. In control and bile drainage group, the beagle dogs were fed with empty capsules. Immediately after dosing, the animals were placed in their cages, and food and water were provided ad libitum. Dogs were sacrificed with an overdose of sodium pentobarbital at the end of the experiment. All procedures were performed according to the ethical standards of the National Institutes of Health Guide for Animal Welfare and approved by the Institutional Animal Care and Use Committee (EAWE-2017-005).
Peptide toxins in blood and urine samples were analyzed as described previously. Bile samples from Days 0–1, Days 1–2, Days 2–3, and Days 3–4 were collected and stored in medical drainage bags and the bile volume was recorded. Plasma and urine samples were stored at 2–8 °C until analysis for peptide toxins.
UPLC and MS/MS parameters were as described in our previous study. The limit of detection and limit of quantitation of each toxin in the bile were 0.03 mg/kg and 0.5 mg/kg, respectively.
Toxicokinetic parameters were described in our previous study. Measurement data are reported as mean ± standard deviation values and enumeration data are reported as percentage (%). […] SPSS 22.0 (IBM Corporation, Armonk, NY, USA, 2015) was used for statistical analysis. The criterion for statistical significance was p ≤ 0.05. Except for the biliary drainage operation, the animals and methods in our present study are in accordance with our previously published study. Thus, by directly comparing the data from this study with those from our published studies on Amanita exitialis-exposed beagles without biliary drainage, we can evaluate the impact of biliary drainage on the toxicity and toxicokinetics of Amanita exitialis in beagles.

[2] = cited from earlier work
Description: The difference in detectable time in the urine can be explained by the low level of internal exposure (amatoxins in the blood). […] The daily amounts of peptide toxins excreted in urine in beagles without biliary drainage(mg). Time after α-Amanitin β-Amanitin Phallacidin ingestion 20 mg/kg 60 mg/kg 20 mg/kg 60 mg/kg 20 mg/kg 60 mg/kg group group group group group group 0-1d 0.0379 0.0593 0.0156 0.0251 0.0035 0.0088 (97.9%) (92.8%) (99.9%) (94.7%) (94.2%) (76%) 1-2d 0.0388 0.0618 0.01567 0.0255 0.0037 0.0110 (99.995%) (97.5%) (100%) (96.2%) (100%) (93%) 2-3d 0.0002 0.0626 0 0.0260 0 0.0115 (100%) (99.4%) (100%) (98.2%) (100%) (97.3%) 3-4d 0 0.063 ...

[3] = 60 mg/kg Amanita exitialis oral, biliary drainage, plasma, mean ± SD

For `CC(C)[C@@H]1NC(=O)[C@H](C[C@@](C)(O)CO)NC(=O)[C@@H]2Cc3c([nH]c4ccccc34)SC[C@H](NC(=O)[C@@H]([C@H](O)C(=O)O)NC1=O)C(=O)N1C[C@@H](O)C[C@H]1C(=O)N[C@@H](C)C(=O)N2` [phallacidin] (cyclo(A[Trp(2-yl)][Leu(4R-OH,5-OH)]V[dAsp(3S-OH)]C[cisHyp]); thioether 2-6), the “detection rate of peptide toxins in blood” value (shortened to “detection rate”) ([1]; 0 h after ingestion, 20 mg/kg with biliary drainage group) was 0%, the “detection rate” value ([1]; 0 h after ingestion, 60 mg/kg with biliary drainage group) was 0% and the T1/2 ([1]; 60 mg/kg Amanita exitialis oral, biliary drainage, plasma, UPLC-ESI-MS/MS, mean ± SD) was 0.62 ± 0.32 ^b,* h. The “AUC (0–∞)” value [1, 3] was 2.08 ± 2.06 ^b,* µg/L × h, the CL/F [1, 3] was 1.1 ± 0.86 ^b,* L/h/kg and the Cmax [1, 3] was 0.85 ± 0.37 ^b,* µg/L. The “Dose normalized AUC (0–∞)” value [1, 3] was 60.5 ± 60.2 ^b,*, the “Dose normalized Cmax” value [1, 3] was 24.8 ± 10.8 ^b,* and the “MRT (0–∞)” value [1, 3] was 1.95 ± 0.73 ^b,* h. The Tmax [1, 3] was 1.38 ± 0.25 h, the “detection rate” value ([1]; 0.25 h after ingestion, 20 mg/kg with biliary drainage group) was 0% and the “detection rate” value ([1]; 0.25 h after ingestion, 60 mg/kg with biliary drainage group) was 33%. For the same molecule, the “detection rate” value ([1]; 0.5 h after ingestion, 20 mg/kg with biliary drainage group) was 0%, the “detection rate” value ([1]; 0.5 h after ingestion, 60 mg/kg with biliary drainage group) was 33% and the “detection rate” value ([1]; 1 h after ingestion, 20 mg/kg with biliary drainage group) was 50%. For the same molecule, the “detection rate” value ([1]; 1 h after ingestion, 60 mg/kg with biliary drainage group) was 100%, the “detection rate” value ([1]; 1.5 h after ingestion, 20 mg/kg with biliary drainage group) was 66% and the “detection rate” value ([1]; 1.5 h after ingestion, 60 mg/kg with biliary drainage group) was 100%. The “detection rate” value ([1]; 2 h after ingestion, 20 mg/kg with biliary drainage group) was 33%, the “detection rate” value ([1]; 2 h after ingestion, 60 mg/kg with biliary drainage group) was 100% and the “detection rate” value ([1]; 3 h after ingestion, 20 mg/kg with biliary drainage group) was 33%. The “detection rate” value ([1]; 3 h after ingestion, 60 mg/kg with biliary drainage group) was 50%, the “detection rate” value ([1]; 4 h after ingestion, 20 mg/kg with biliary drainage group) was 17% and the “detection rate” value ([1]; 4 h after ingestion, 60 mg/kg with biliary drainage group) was 50%. For the same molecule, the “detection rate” value ([1]; 5 h after ingestion, 20 mg/kg with biliary drainage group) was 0%, the “detection rate” value ([1]; 5 h after ingestion, 60 mg/kg with biliary drainage group) was 33% and the “detection rate” value ([1]; 6 h after ingestion, 20 mg/kg with biliary drainage group) was 0%. The “detection rate” value ([1]; 6 h after ingestion, 60 mg/kg with biliary drainage group) was 17%, the “detection rate” value ([1]; 8 h after ingestion, 20 mg/kg with biliary drainage group) was 0% and the “detection rate” value ([1]; 8 h after ingestion, 60 mg/kg with biliary drainage group) was 0%. For the same molecule, the “detection rate” value ([1]; 10 h after ingestion, 20 mg/kg with biliary drainage group) was 0%, the “detection rate” value ([1]; 10 h after ingestion, 60 mg/kg with biliary drainage group) was 0% and the “detection rate” value ([1]; 12 h after ingestion, 20 mg/kg with biliary drainage group) was 0%. For the same molecule, the “detection rate” value ([1]; 12 h after ingestion, 60 mg/kg with biliary drainage group) was 0%, the “detection rate” value ([1]; 24 h after ingestion, 20 mg/kg with biliary drainage group) was 0% and the “detection rate” value ([1]; 24 h after ingestion, 60 mg/kg with biliary drainage group) was 0%. For the same molecule, the “detection rate” value ([1]; 36 h after ingestion, 20 mg/kg with biliary drainage group) was 0%, the “detection rate” value ([1]; 36 h after ingestion, 60 mg/kg with biliary drainage group) was 0% and the “detection rate” value ([1]; 48 h after ingestion, 20 mg/kg with biliary drainage group) was 0%. The “detection rate” value ([1]; 48 h after ingestion, 60 mg/kg with biliary drainage group) was 0%, the “time at which toxins were detected in plasma after ingestion” value ([1]; beagles with biliary drainage, oral Amanita exitialis) was 30 min and the Vd/F ([1]; male, beagle, dog, 60 mg/kg Amanita exitialis oral, biliary drainage, plasma, mean ± SD, read-out: Vz/F) was 1.77 ± 0.57 L/kg. The “daily amount excreted in urine, without biliary drainage” value ([2]; 0-1d, 20 mg/kg group) was 0.0035 mg, the “percentage in parentheses, urine, without biliary drainage” value ([2]; 0-1d, 20 mg/kg group) was 94.2% and the “daily amount excreted in urine, without biliary drainage” value ([2]; 0-1d, 60 mg/kg group) was 0.0088 mg. For the same molecule, the “percentage in parentheses, urine, without biliary drainage” value ([2]; 0-1d, 60 mg/kg group) was 76%, the “Accumulative amount excreted in urine, without biliary drainage” value ([2]; 20 mg/kg group) was 0.0037 mg and the “percentage in parentheses, Accumulative amount, urine, without biliary drainage” value ([2]; 20 mg/kg group) was 100%. The “percentage in parentheses, Accumulative amount, urine, without biliary drainage” value ([2]; 60 mg/kg group) was 100%, the “percentage in parentheses, urine, without biliary drainage” value ([2]; 1-2d, 20 mg/kg group) was 100% and the “daily amount excreted in urine, without biliary drainage” value ([2]; 1-2d, 60 mg/kg group) was 0.0110 mg. The “percentage in parentheses, urine, without biliary drainage” value ([2]; 1-2d, 60 mg/kg group) was 93%, the “daily amount excreted in urine, without biliary drainage” value ([2]; 2-3d, 20 mg/kg group) was 0 mg and the “percentage in parentheses, urine, without biliary drainage” value ([2]; 2-3d, 20 mg/kg group) was 100%. The “daily amount excreted in urine, without biliary drainage” value ([2]; 2-3d, 60 mg/kg group) was 0.0115 mg, the “percentage in parentheses, urine, without biliary drainage” value ([2]; 2-3d, 60 mg/kg group) was 97.3% and the “daily amount excreted in urine, without biliary drainage” value ([2]; 3-4d, 20 mg/kg group) was 0 mg. The “percentage in parentheses, urine, without biliary drainage” value ([2]; 3-4d, 20 mg/kg group) was 100%, the “daily amount excreted in urine, without biliary drainage” value ([2]; 3-4d, 60 mg/kg group) was 0.0118 mg and the “percentage in parentheses, urine, without biliary drainage” value ([2]; 3-4d, 60 mg/kg group) was 100%.
